From patent US20110143406A1, “Novel (S,S) -Butanediol Dehydrogenase, Gene for the Same, and Use of the Same” (Kaneka Corporation, priority 2006, published 2011)

System: not listed separately
Assay: Optimum temperature for action of ROB
Type: biochemical, Ochrobactrum sp. KNKc71-3
Conditions: (2S,3S)-2,3-butanediol oxidation, measured at 10 to 70° C., pH 8.0
Experimental: Using the purified ROB obtained in Example 1, (2S,3S)-2,3-butanediol oxidation activity measurements were carried out at 10 to 70° C. In the activity measurements, (2S,3S)-2,3-butanediol (0.1 M), NAD^+ 2 mM and the enzyme solution were added to 100 mM phosphate buffer (pH 8.0), the reaction was allowed to proceed at 10 to 70° C. for 1 minute, and the increase in absorbance at the wavelength 340 nm were measured.

Compound | optimum temperature for the activity [°C]
ROB: purified (S,S)-butanediol dehydrogenase from Ochrobactrum sp. KNKc71-3, amino acid sequence SEQ ID NO:1 | 70

System: ROB ((S,S)-butanediol dehydrogenase)
Assay: not given
Type: biochemical, Ochrobactrum sp. KNKc71-3
Conditions: oxidation; each compound 10 mM, NAD+ 2 mM, pH 8.0, 30° C., 1 minute; activity against (2S,3S)-2,3-butanediol taken as 100
Experimental: Using the purified ROB obtained in Example 1, oxidation activity measurement were carried out using, as substrates, optical isomers of each of 2-butanol, 2-pentanol, 1,2-propanediol, 2,3-butanediol and 3-chloro-1,2-propanediol. NAD^+ (2 mM), each compound (10 mM) and the enzyme solution were added to 100 mM phosphate buffer (pH 8.0), the reaction was allowed to proceed at 30° C. for 1 minute, and the increase in absorbance at the wavelength 340 nm.

Compound | Relative activity (%)
C[C@H](O)CO [(S)-1,2-propanediol] | 16.7
CCC[C@@H](C)O [(R)-2-pentanol] | 2.9
C[C@@H](O)[C@@H](C)O [(2R,3R)-2,3-butanediol] | 0.6
OC[C@H](O)CCl [(S)-3-chloro-1,2-propanediol] | 0.1
C[C@H](O)[C@H](C)O [(2S,3S)-2,3-butanediol] | 100
OC[C@@H](O)CCl [(R)-3-chloro-1,2-propanedio] | 3.5
C[C@@H](O)CO [(R)-1,2-propanediol] | 8.0
CCC[C@H](C)O [(S)-2-pentanol] | 58.9
CC(O)C(C)O (stereo not drawn) [meso-2,3-butanediol] | 38.9

Same assay, conditions: pH 8

Compound | Relative activity (%)
CC[C@H](C)O [(S)-2-butanol] | 44.2
CC[C@@H](C)O [(R)-2-butanol] | 3.2

System: ROB ((S,S)-butanediol dehydrogenase)
Assay: Substrate specificity of ROB: oxidation activity
Type: biochemical, Ochrobactrum sp. KNKc71-3
Conditions: each compound 10 mM, NAD+ 2 mM, phosphate buffer pH 8.0, 30° C., 1 minute, activity against 2,3-butanediol taken as 100
Experimental: Using the purified ROB obtained in Example 1, oxidation activity measurements were carried out by adding NAD^+ (2 mM), each compound (10 mM) shown in Table 2 and the enzyme solution to 100 mM phosphate buffer (pH 8.0), the reaction was allowed to proceed at 30° C. for 1 minute, and the increase in absorbance at the wavelength 340 nm was measured. The relative activity data are summarized in Table 2, with the activity against 2,3-butanediol being taken as 100.

Compound | Relative activity (%)
CC(=O)C(C)O (stereo not drawn) [Acetoin] | 0.4
CC(O)CCl (stereo not drawn) [1-chloro-2-propanol] | 7.7
COC(=O)C(C)O (stereo not drawn) [Methyl lactate] | 0.9
CC(O)Cc1ccccc1 (stereo not drawn) [1-phenyl-2-propanol] | 43.0
CCCCO [1-butanol] | 0
CCC(C)O (stereo not drawn) [2-butanol] | 40.4
CCC(O)CO (stereo not drawn) [1,2-butanediol] | 8.2
CC(C)O [2-propanol] | 5.1
CCCO [1-propanol] | 0
CC(O)CO (stereo not drawn) [1,2-propanediol] | 57.9
CC(O)c1ccccc1 (stereo not drawn) [1-phenyl ethanol] | 6.8
OCC(O)CCl (stereo not drawn) [3-chloro-1,2-propanediol] | 3.9
CCCC(C)O (stereo not drawn) [2-pentanol] | 58.8
CCO [Ethanol] | 0
CC(O)CCO (stereo not drawn) [1,3-butanediol] | 0.5
CCC(O)CC [3-pentanol] | 3.3
CC(O)C(C)O (stereo not drawn) [2,3-butanediol] | 100
CC(O)CCCO (stereo not drawn) [1,4-pentanediol] | 3.3
CCCC(O)CO (stereo not drawn) [1,2-pentanediol] | 4.4
CCOC(=O)C(C)O (stereo not drawn) [Ethyl lactate] | 1.6
CCCCCCC(C)O (stereo not drawn) [2-octanol] | 59.6
CO [Methanol] | 0

System: not listed separately
Assay: Specific oxidation activity of purified enzyme
Type: biochemical, Ochrobactrum sp. KNKc71-3
Conditions: (2S,3S)-2,3-butanediol 100 mM, NAD+ 2 mM, pH 8.0, 30° C.
Experimental: In the examples described below, the oxidation activity of (S,S)-butanediol dehydrogenase was determined by adding (2S,3S)-2,3-butanediol (100 mM), NAD^+ (2 mM) and an enzyme solution to 100 mM phosphate buffer (pH 8.0) and measuring the increase in absorbance at the wavelength 340 nm at 30° C. The enzyme activity reducing 1 μmol of NAD^+ to NADH per minute was defined as 1 unit.
Ammonium sulfate was added to this active fraction to a concentration of 1 M, and the mixture was submitted to a Phenyl-TOYOPEARL 650M (product of Tosoh) column (50 ml) equilibrated in advance with 10 mM phosphate buffer (pH 7.0) containing 1 M ammonium sulfate for adsorption of the enzyme. After washing the column with the same buffer, the active fraction was eluted on a linear gradient from 1 M to 0 M ammonium sulfate. Ammonium sulfate was added to this active fraction to a concentration of 1.2 M, and the mixture was submitted to a Butyl-TOYOPEARL 650S (product of Tosoh) column (25 ml) equilibrated in advance with 10 mM phosphate buffer (pH 7.0) containing 1.2 M ammonium sulfate for adsorption of the enzyme. After washing the column with the same buffer, the active fraction was eluted on a linear gradient from 1.2 M to 0 M ammonium sulfate. This active fraction was analyzed by sodium dodecyl sulfate-polyacrylamide electrophoresis and found to give a single band. […]

Compound | specific activity
ROB: purified (S,S)-butanediol dehydrogenase from Ochrobactrum sp. KNKc71-3, amino acid sequence SEQ ID NO:1 | about 119 U/mg-protein

System: ROB ((S,S)-butanediol dehydrogenase)
Assay: not given
Type: biochemical, Ochrobactrum sp. KNKc71-3
Conditions: reduction; each compound 1 mM, NADH 0.167 mM, phosphate buffer pH 5.5, 30° C., 3 minutes; activity against 2,3-butanedione taken as 100

Compound | Relative activity (%)
CCC(C)=O [2-butanone] | 0.9
CCOC(=O)CC(=O)CCl [Ethyl 4-chloroacetoacetate] | 21.7
O=C(CO)CCl [1-chloro-3-hydroxyacetone] | 94.3
CCOC(=O)C(Cl)C(C)=O (stereo not drawn) [Ethyl 2-chloroacetoacetate] | 58.5
COC(=O)C(C)=O [Methyl pyruvate] | 136
CC(=O)C(C)=O [2,3-butanedione] | 100
CC(=O)CO [Hydroxyacetone] | 17.9
CCOC(=O)C(C)=O [Ethyl pyruvate] | 176
CCCCC(C)=O [2-hexanone] | 2.8
CCCCCC(C)=O [2-heptanone] | 3.8
CCCC(C)=O [2-pentanone] | 2.8
COC(=O)CC(C)=O [Methyl acetoacetate] | 65.1
CCCCCCC(C)=O [2-octanone] | 2.8

System: ROB ((S,S)-butanediol dehydrogenase)
Assay: not given
Type: biochemical, Ochrobactrum sp. KNKc71-3
Conditions: pH 8

Compound | Relative activity (%)
CCN1C(=O)C=CC1=O [N-ethylmaleimide] | 93
O=C(O)CN(CCN(CC(=O)O)CC(=O)O)CC(=O)O [EDTA] | 95
[Cl-].[Cl-].[Co+2] [CoCl2] | 66
CC(=O)[O-].[Na+] [Sodium acetate] | 96

Same assay, conditions: reagent 0.1 mM; (2S,3S)-2,3-butanediol 0.1 M, NAD+ 2 mM, pH 8.0, 30° C.; reagent-free activity taken as 100

Compound | Relative activity (%)
[Cl][Hg][Cl] [HgCl2] | 41

Same assay, conditions: reagent 1.0 mM; (2S,3S)-2,3-butanediol 0.1 M, NAD+ 2 mM, pH 8.0, 30° C.; reagent-free activity taken as 100

Compound | Relative activity (%)
O=S(=O)([O-])[O-].[Cu+2] [CuSO4] | 81
O=C(O)c1cc[c]([Hg][Cl])cc1 [p-chloromercuribenzoate] | 84
[Ba+2].[Cl-].[Cl-] [BaCl2] | 56
O=S(=O)([O-])[O-].[Zn+2] [ZnSO4] | 88
[Cl][Hg][Cl] [HgCl2] | 0
O=[N+]([O-])[O-].[Ag+] [AgNO3] | 30
[Cl][Mn][Cl] [MnCl2] | 87
O=S(=O)(F)Cc1ccccc1 [Phenylmethylsulfonyl fluoride] | 75
O=S(=O)([O-])[O-].[Mg+2] [MgSO4] | 91
[Ca+2].[Cl-].[Cl-] [CaCl2] | 86
